From US20170280722A1, “COMPOSITIONS AND METHODS FOR CONTROL OF SAND FLIES AND OTHER BLOOD SUCKING INSECTS” (GENESIS LABORATORIES, INC., priority 2010, published 2017)
Where “and” joins values, the source holds several entries; their conditions need not be identical. Equal values may be shown once. Entries after “also recorded” stand apart in the source; their conditions may differ.

Assays:
Type in all cases: in vivo
[1] = test system: P. argentipes 1st instar larvae; experiment: Larval bioassay with feces of insecticide treated R. rattus (feed through)
Method: In the first study, a feed through study comparing diflubenzuron, fipronil, ivermectin, and eprinomectin was conducted on rats (Rattus rattus). Fecal samples were collected after three (3) consecutive days of administration of the trial products. The efficacy of the drugs administered during the blind study underwent testing in larval bioassays with P. argentipes 1st instar larvae. Commercially available chicken feed was mixed with the appropriate concentrations of each insecticide compound and used as is in the trial.
Twelve (12) locally purchased rats (Rattus rattus) of mixed sex were utilized in a small study testing the efficacy of four feed through insecticides. Five treatment groups of two rats each were randomly identified and fed diets consisting of locally available chicken feed treated with one of the following compounds: diflubenzuron (0.048%), fipronil (0.015%), ivermectin (0.025%), and eprinomectin (0.01% and 0.025%). Two rats served as control and were fed only chicken feed. Rats were fed 20 g of their assigned diet daily at the same time, with daily consumption and spillage calculated for a period of three (3) days. Sand fly analyses were conducted simultaneously.
[…] Collected feces were dried at approximately 40° C. in an oven then ground into a fine powder utilizing a pestle and mortar and frozen at −20° C. until larval bioassays were initiated.
Larval bioassay pots were prepared using 48 mm, 100 g round Dibbi jars. Dishes were prepared by burning several small holes into the bottom of the dish with a soldering iron and filling them with a small layer of plaster (¼ to ½ inch depth). Approximately 15-20 holes were punctured into the lids using 24 gauge needles. For simpler mortality counting, pots were quartered and each quadrant numbered using an ultra fine black Sharpie.
For each individual post-treatment bioassays, thirteen (13) dishes were loaded with 10 day old 1st instar P. argentipes larvae; twelve (12) pots were provided with approximately 0.005 g of the treated feces, with two sample pots per treated bandicoot rat, and one overall control sample fed only standard larval diet. See Table 1 for sample/treatment correlations. Larvae were loaded into bioassay pots and provided with their designated treatment sample. Mortality counts of larvae were conducted every 24 hours post-treatment until 100% mortality, or pupation, was reached.

[2] = Cattle dosing, observation for adverse effects; conditions: 0.5, 1.0, 2.0, and 4.0 mg/kg body weight, single oral dose
Method: (§1) The test substance was given to the cattle orally as a single application. The oral treatment was by hand. Because the oral treatment was delivered in capsule form the dosage was very precise.
The observation period can be extended, if necessary based on drug persistence data and residue analysis. The first day of dose application was designated as day 0.
(§2) The four dose levels of fipronil for the treatment groups used in this study were as follows: 0.5, 1.0, 2.0 and 4.0 mg/kg. These were weighed with an analytical balance to the nearest 0.01 g and presented in gelatin capsules.
Body weights were recorded individually for all animals during randomization, at the beginning of each week (Monday) during the study period, and at the termination of the study.

[3] = test system: larval P. argentipes sand flies; experiment: Larval bioassay with feces of cattle given a single oral dose of fipronil; conditions: for Days after dosing to attain 100% mortality in sand flies: cattle
Method: as §1, §2
Collection of feces was performed at pre-dosing (day 0) and days 1, 3, 5, 7, 14, 21, and 28 following administration. Feces were sampled using arm length veterinarian sterile glove and about 50 g of feces was placed into individually label plastic jars. Samples were stored in a −20° C. freezer.
Larval bioassay jars were prepared using 48 mm, 100 g round Dibbi jars (Pearlpet, Pearl Polymers LTD., New Delhi, India). Jars were prepared by burning three small holes into the bottom of the container with a soldering iron. A thin layer (approximately 5 mm) of plaster of Paris was cast on the bottom and wetted to ensure humidity and softening of the test diet. To simplify mortality counts, the plaster was quartered, and each quadrant numbered one through four, using an ultra fine black marker. The lids of the jars were punctured with 15-20 small holes using a heated 24-gauge hypodermic needle.
Each bioassay jar was loaded with ten one to two day old first instar P. argentipes larvae. Approximately 5 mg treated feces were sprinkled evenly over the plaster. Larval bioassay samples were maintained in a controlled environment at approximately 24° C. with relative humidity maintained at approximately 80% through daily moistening of paper towels underneath the jars. Any observed mold or mites were removed during each day's observation. Each bioassay group included one control jar with larvae provided standard larval food consisting of rabbit feed, rabbit pellets, and dried chicken blood which were mixed, dried, composted, and crushed. Mortality counts of larvae were conducted every 24 hours post-exposure until 100% mortality or pupation was observed. Larvae were considered dead if no physical response was observed within 15 seconds of light stimulation with a blunt probe.

[4] = test system: adult sand flies (P. argentipes); experiment: Adult sand fly bioassay on cattle given oral fipronil
Method: as §1, §2
A breeding colony of P. argentipes was established during 2009 and is situated in Patna. The colony contains an average of 10,000 sand flies. Adults and larvae are used routinely for studies and are maintained under controlled temperature and humidity conditions.
Adult sand flies used in this study were transferred to a mud plastered hut built next to the cattle shed. This was to acclimate lab-ready sand flies to natural environmental conditions in which the study was to be conducted. The sand flies were kept in 0.4 m^3 cloth mesh enclosures.
Adult sand fly bioassays were conducted on days 1, 3, 5, 7, 14, 21, and 28 after oral administration of fipronil. […] Sand flies were counted and placed in a sand fly feeding capsule (10 cm diameter×2 cm deep). […]
Two sand fly feeding capsules were used per cow. […] Sand flies were allowed to feed for 60 minutes and were monitored closely throughout the feeding period. […]

[5] = feces of R. rattus day-1 post treatment, 150 ppm

N#Cc1nn(-c2c(Cl)cc(C(F)(F)F)cc2Cl)c(N)c1[S+]([O-])C(F)(F)F (stereo not drawn) [fipronil]
Mean ± SEM survival (days) of P. arg larvae post-exposure [1, 5]: 2.25 ± 0.10 days
P. argentipes larvae mortality (%) [1, 5]: 100%
Day of observation by which 100% larval mortality was reached ([1]; feces of R. rattus fed 0.015% in feed): ≤ 3 days
Time to paralysis of larvae after exposure ([1]; larvae exposed to feces of fipronil-treated animals): ≤ 24 h
Speed of mortality and duration of effectiveness compared with the other compounds tested ([1]; larval P. argentipes, rodent feed through trials): quickest mortality and longest lasting effectiveness of all of the compounds tested; also recorded: quickest knockdown and longest lasting efficacy of all of the insecticides examined
Adverse effect from dosing the cattle [2]: no observed adverse effect
Larval mortality ([3]; all dose levels (0.5-4.0 mg/kg), over the 21-day study): 100%
Day by which 100% sand fly mortality was attained ([3]; cattle feces of day 3 post-treatment, dose level not stated): ≤ 4 days
Days after dosing to attain 100% mortality in sand flies ([3]; single oral dose 0.5 mg/kg, feces of day 1 after administration): 5.5 days
Days after dosing to attain 100% mortality in sand flies ([3]; single oral dose 0.5 mg/kg, feces of day 3 after administration): 6.0 days
Days after dosing to attain 100% mortality in sand flies ([3]; single oral dose 0.5 mg/kg, feces of day 5 after administration): 9.5 days
Days after dosing to attain 100% mortality in sand flies ([3]; single oral dose 0.5 mg/kg, feces of day 14 after administration): 17 days
Days after dosing to attain 100% mortality in sand flies ([3]; single oral dose 0.5 mg/kg, feces of day 21 after administration): 15.5 days
Days after dosing to attain 100% mortality in sand flies ([3]; single oral dose 1.0 mg/kg, feces of day 1 after administration): 4.5 days
Days after dosing to attain 100% mortality in sand flies ([3]; single oral dose 1.0 mg/kg, feces of day 3 after administration): 4.0 days
Days after dosing to attain 100% mortality in sand flies ([3]; single oral dose 1.0 mg/kg, feces of day 5 after administration): 9.0 days
Days after dosing to attain 100% mortality in sand flies ([3]; single oral dose 1.0 mg/kg, feces of day 14 after administration): 20 days
Days after dosing to attain 100% mortality in sand flies ([3]; single oral dose 1.0 mg/kg, feces of day 21 after administration): 16.5 days
Days after dosing to attain 100% mortality in sand flies ([3]; single oral dose 2.0 mg/kg, feces of day 1 after administration): 4.0 days
Days after dosing to attain 100% mortality in sand flies ([3]; single oral dose 2.0 mg/kg, feces of day 3 after administration): 4.0 days
Days after dosing to attain 100% mortality in sand flies ([3]; single oral dose 2.0 mg/kg, feces of day 5 after administration): 7.0 days
Days after dosing to attain 100% mortality in sand flies ([3]; single oral dose 2.0 mg/kg, feces of day 14 after administration): 10 days
Days after dosing to attain 100% mortality in sand flies ([3]; single oral dose 2.0 mg/kg, feces of day 21 after administration, 2 mg/kg): 12 days and 12.0 days
Days after dosing to attain 100% mortality in sand flies ([3]; single oral dose 4.0 mg/kg, feces of day 1 after administration): 4.0 days
Days after dosing to attain 100% mortality in sand flies ([3]; single oral dose 4.0 mg/kg, feces of day 3 after administration): 4.0 days
Days after dosing to attain 100% mortality in sand flies ([3]; single oral dose 4.0 mg/kg, feces of day 5 after administration): 6.5 days
Days after dosing to attain 100% mortality in sand flies ([3]; single oral dose 4.0 mg/kg, feces of day 14 after administration): 11 days
Days after dosing to attain 100% mortality in sand flies ([3]; single oral dose 4.0 mg/kg, feces of day 21 after administration, 4 mg/kg): 10 days and 10.0 days
Level of control of adult sand flies as a systemic ([4]; cattle, oral, without having an impact on milk residues): high levels of control were not attainable
Adult sand fly mortality versus dose level ([4]; days 14 and 21 post-treatment, one hour exposure to cattle, 0.5-4.0 mg/kg): mortality increased with dose level
